{"source": "patent US11203597B2", "about": "“Crystalline spirocyclic compound, a dosage form containing, a method for using in treatment of disease, and a method for recrystallizing” (Altavant Sciences GmbH, priority 2018, dated 2021)", "origin": "cited, not measured here", "biological_target": "T1, TPH1 (Mus musculus, UniProt P17532)", "T1 construct": "host or cells: mice (in vivo)", "T1 sequence (P17532 1-447)": "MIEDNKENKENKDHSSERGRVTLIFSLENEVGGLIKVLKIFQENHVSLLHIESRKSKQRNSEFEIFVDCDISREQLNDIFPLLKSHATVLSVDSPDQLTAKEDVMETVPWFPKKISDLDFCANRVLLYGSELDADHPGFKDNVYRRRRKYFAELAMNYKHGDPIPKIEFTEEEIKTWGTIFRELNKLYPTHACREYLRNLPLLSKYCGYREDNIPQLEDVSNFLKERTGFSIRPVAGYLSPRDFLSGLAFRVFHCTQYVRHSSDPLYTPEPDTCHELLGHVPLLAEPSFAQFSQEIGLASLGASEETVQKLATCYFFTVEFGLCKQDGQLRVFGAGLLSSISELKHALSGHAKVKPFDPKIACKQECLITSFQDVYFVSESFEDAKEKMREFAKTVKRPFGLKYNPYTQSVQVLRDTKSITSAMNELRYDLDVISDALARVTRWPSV", "conditions": "U.S. Pat. No. 9,199,994, Example 63i and Table 27; cited from earlier work"}
{"smiles": "CCOC(=O)[C@@H]1CC2(CCN(c3cc(O[C@H](c4ccc(Cl)cc4-c4ccccc4)C(F)(F)F)nc(N)n3)CC2)CN1", "note": "[(S)-ethyl 8-(2-amino-6-((R)-1-(5-chloro-[1,1′-biphenyl]-2-yl)-2,2,2-trifluoroethoxy)pyrimidin-4-yl)-2,8-diazaspiro[4.5]decane-3-carboxylate]", "values": [{"measurement": "efficacy in inhibiting TPH1 in mice", "result": "demonstrated"}]}
